Measurements from PubChem BioAssay AID2060605 (Molecular Pharmacology Branch, DTP, NCI, 2025).
Where “and” joins values, the source holds several entries; their conditions need not be identical. Equal values may be shown once. Calls of active or inactive are those of the source. Rule for the calls: active = viability on the fitted dose curve at most 10% of control; inactive = the rest.

Test system: 947758-054-R-J2-PDC spheroid growth, percent test/control
Experiment: Anticancer human tumor 947758-054-R-J2-PDC patient-derived colon adenocarcinoma cell line growth inhibition [CLK]
Conditions: spheroids with HUVEC and MSC; for viability, T/C: stronger effect = lower value
Outline: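 Patient-derived tumor cells grown as complex spheroids with HUVEC endothelial cells and mesenchymal stem cells, treated with drug combinations. Concentrations descend in half-log steps from near clinical Cmax, or from 10 microM if Cmax unknown.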

[1] = curve of first compound, second compound 0.0316 µM
[2] = curve of first compound, second compound 0.1 µM
[3] = curve of first compound, second compound 0.316 µM
[4] = curve of first compound, second compound 1 µM
[5] = curve of first compound, second compound 3.16 µM
[6] = curve of first compound, second compound 10 µM
[7] = second compound 0.0316 µM, first compound 0.0316 µM
[8] = second compound 0.0316 µM, first compound 0.1 µM
[9] = second compound 0.0316 µM, first compound 0.316 µM
[10] = second compound 0.0316 µM, first compound 1 µM
[11] = second compound 0.0316 µM, first compound 3.16 µM
[12] = second compound 0.0316 µM, first compound 10 µM
[13] = second compound 0.1 µM, first compound 0.0316 µM
[14] = second compound 0.1 µM, first compound 0.1 µM
[15] = second compound 0.1 µM, first compound 0.316 µM
[16] = second compound 0.1 µM, first compound 1 µM
[17] = second compound 0.1 µM, first compound 3.16 µM
[18] = second compound 0.1 µM, first compound 10 µM
[19] = second compound 0.316 µM, first compound 0.0316 µM
[20] = second compound 0.316 µM, first compound 0.1 µM
[21] = second compound 0.316 µM, first compound 0.316 µM
[22] = second compound 0.316 µM, first compound 1 µM
[23] = second compound 0.316 µM, first compound 3.16 µM
[24] = second compound 0.316 µM, first compound 10 µM
[25] = second compound 1 µM, first compound 0.0316 µM
[26] = second compound 1 µM, first compound 0.1 µM
[27] = second compound 1 µM, first compound 0.316 µM
[28] = second compound 1 µM, first compound 1 µM
[29] = second compound 1 µM, first compound 3.16 µM
[30] = second compound 1 µM, first compound 10 µM
[31] = second compound 3.16 µM, first compound 0.0316 µM
[32] = second compound 3.16 µM, first compound 0.1 µM
[33] = second compound 3.16 µM, first compound 0.316 µM
[34] = second compound 3.16 µM, first compound 1 µM
[35] = second compound 3.16 µM, first compound 3.16 µM
[36] = second compound 3.16 µM, first compound 10 µM
[37] = second compound 10 µM, first compound 0.0316 µM
[38] = second compound 10 µM, first compound 0.1 µM
[39] = second compound 10 µM, first compound 0.316 µM
[40] = second compound 10 µM, first compound 1 µM
[41] = second compound 10 µM, first compound 3.16 µM
[42] = second compound 10 µM, first compound 10 µM
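Note: spheroids exposed to compounds for one week before readout.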
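Throughout, for viability, T/C: 100% = DMSO vehicle control wells.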

`O=C(c1cc(Cc2n[nH]c(=O)c3ccccc23)ccc1F)N1CCN(C(=O)C2CC2)CC1` + CN1CCN(c2cc(C(=O)Nc3cc4cc(-c5cnn(C)c5)ccc4cn3)ccn2)CC1 was tested, and the IC50 [1] was greater than 10 µM, the IC50 [2] was greater than 10 µM and the IC50 [3] was less than 0.0316 µM. It also gave an IC50 [4] of less than 0.0316 µM, an IC50 [5] of less than 0.0316 µM and an IC50 [6] of less than 0.0316 µM. It also gave a viability, T/C [7] of 137%, a viability, T/C [8] of 108% and a viability, T/C [9] of 127%. For the same molecule, the viability, T/C [10] was 111%, the viability, T/C [11] was 139% and the viability, T/C [12] was 222%. It also gave a viability, T/C [13] of 173%, a viability, T/C [14] of 187% and a viability, T/C [15] of 179%. It also gave a viability, T/C [16] of 180%, a viability, T/C [17] of 206% and a viability, T/C [18] of 119%. The viability, T/C [19] was 3.05%, the viability, T/C [20] was 3.52% and the viability, T/C [21] was 3.12%. The viability, T/C [22] was 2.9%, the viability, T/C [23] was 2.97% and the viability, T/C [24] was 2.81%. For the same molecule, the viability, T/C [25] was 0.13%, the viability, T/C [26] was 0.13% and the viability, T/C [27] was 0.15%. It also gave a viability, T/C [28] of 0.09%, a viability, T/C [29] of 0.15% and a viability, T/C [30] of 0.18%. The viability, T/C [31] was 0.14%, the viability, T/C [32] was 0.24% and the viability, T/C [33] was 0.22%. The viability, T/C [34] was 0.18%, the viability, T/C [35] was 0.73% and the viability, T/C [36] was 0.27%. The viability, T/C [37] was 0.31%, the viability, T/C [38] was 0.36% and the viability, T/C [39] was 0.95%. The viability, T/C [40] was 0.29%, the viability, T/C [41] was 0.44% and the viability, T/C [42] was 0.35%.

With `CC1COCCN1c1cc(C2(S(C)(=N)=O)CC2)nc(-c2ccnc3[nH]ccc23)n1` (stereo unspecified) the viability, T/C (compound 0.0316 µM) was 110% and 128%, the viability, T/C (compound 0.1 µM) was 92.4% and 100% and the viability, T/C (compound 0.316 µM) was 79.1% and 102%. The viability, T/C (compound 1 µM) was 111% and 108%, the viability, T/C (compound 3.16 µM) was 202% and the outcome (compound 3.16 µM) was “inactive”. The viability, T/C (compound 10 µM) was 26.1% and 28.4% and the IC50 (curve of compound) was 7.43 µM and 6.37 µM.

With `Cn1ncnc1[C@H]1c2n[nH]c(=O)c3cc(F)cc(c23)N[C@@H]1c1ccc(F)cc1` + CN1CCN(c2cc(C(=O)Nc3cc4cc(-c5cnn(C)c5)ccc4cn3)ccn2)CC1 the IC50 [1] was greater than 0.1 µM, the IC50 [2] was greater than 0.1 µM and the IC50 [3] was less than 0.000316 µM. The IC50 [4] was less than 0.000316 µM, the IC50 [5] was less than 0.000316 µM and the IC50 [6] was less than 0.000316 µM. The viability, T/C (second compound 0.0316 µM, first compound 0.000316 µM) was 141%, the viability, T/C (second compound 0.0316 µM, first compound 0.001 µM) was 155% and the viability, T/C (second compound 0.0316 µM, first compound 0.00316 µM) was 157%. For the same molecule, the viability, T/C (second compound 0.0316 µM, first compound 0.01 µM) was 107%, the viability, T/C [7] was 133% and the viability, T/C [8] was 197%. For the same molecule, the viability, T/C (second compound 0.1 µM, first compound 0.000316 µM) was 161%, the viability, T/C (second compound 0.1 µM, first compound 0.001 µM) was 171% and the viability, T/C (second compound 0.1 µM, first compound 0.00316 µM) was 149%. The viability, T/C (second compound 0.1 µM, first compound 0.01 µM) was 134%, the viability, T/C [13] was 181% and the viability, T/C [14] was 145%. The viability, T/C (second compound 0.316 µM, first compound 0.000316 µM) was 4.7%, the viability, T/C (second compound 0.316 µM, first compound 0.001 µM) was 6.84% and the viability, T/C (second compound 0.316 µM, first compound 0.00316 µM) was 5.57%. The viability, T/C (second compound 0.316 µM, first compound 0.01 µM) was 4.75%, the viability, T/C [19] was 5.66% and the viability, T/C [20] was 4.51%. The viability, T/C (second compound 1 µM, first compound 0.000316 µM) was 0.15%, the viability, T/C (second compound 1 µM, first compound 0.001 µM) was 0.15% and the viability, T/C (second compound 1 µM, first compound 0.00316 µM) was 1.79%. For the same molecule, the viability, T/C (second compound 1 µM, first compound 0.01 µM) was 0.11%, the viability, T/C [25] was 0.18% and the viability, T/C [26] was 1.95%. For the same molecule, the viability, T/C (second compound 3.16 µM, first compound 0.000316 µM) was 0.37%, the viability, T/C (second compound 3.16 µM, first compound 0.001 µM) was 0.17% and the viability, T/C (second compound 3.16 µM, first compound 0.00316 µM) was 0.17%. It also gave a viability, T/C (second compound 3.16 µM, first compound 0.01 µM) of 0.13%, a viability, T/C [31] of 0.37% and a viability, T/C [32] of 1.28%. It also gave a viability, T/C (second compound 10 µM, first compound 0.000316 µM) of 0.25%, a viability, T/C (second compound 10 µM, first compound 0.001 µM) of 2.6% and a viability, T/C (second compound 10 µM, first compound 0.00316 µM) of 0.52%. It also gave a viability, T/C (second compound 10 µM, first compound 0.01 µM) of 0.26%, a viability, T/C [37] of 0.26% and a viability, T/C [38] of 2.18%.

In the case of `CC1(C)CCC(CN2CCN(c3ccc(C(=O)NS(=O)(=O)c4ccc(NCC5CCOCC5)c([N+](=O)[O-])c4)c(Oc4cnc5[nH]ccc5c4)c3)CC2)=C(c2ccc(Cl)cc2)C1`, the viability, T/C (compound 0.0316 µM) is reported as 97.8% and 118%, the viability, T/C (compound 0.1 µM) is reported as 77.6% and 97.2% and the viability, T/C (compound 0.316 µM) is reported as 97.4% and 110%. For the same molecule, the viability, T/C (compound 1 µM) was 94.5% and 86.3%, the viability, T/C (compound 3.16 µM) was 79.5% and 87.2% and the viability, T/C (compound 10 µM) was 11.8% and 7.38%. For the same molecule, the IC50 (curve of compound) was 5.23 µM and 5.17 µM.

Molecule `Nc1ccccc1NC(=O)c1ccc(CNC(=O)OCc2cccnc2)cc1` + CNC(=O)c1ccc(Nc2nc(OC3CCCC3)c3c(-c4ccc5nc(C)oc5c4)c[nH]c3n2)c(OC)c1 has an IC50 [1] of 2.23 µM, an IC50 [2] of 2.52 µM and an IC50 [3] of 2.51 µM. For the same molecule, the IC50 [4] was 0.439 µM, the IC50 [5] was less than 0.0316 µM and the IC50 [6] was less than 0.0316 µM. For the same molecule, the viability, T/C [7] was 89.6%, the viability, T/C [8] was 102% and the viability, T/C [9] was 122%. It also gave a viability, T/C [10] of 85.4%, a viability, T/C [11] of 34.2% and a viability, T/C [12] of 5.25%. It also gave a viability, T/C [13] of 85.4%, a viability, T/C [14] of 106% and a viability, T/C [15] of 111%. It also gave a viability, T/C [16] of 116%, a viability, T/C [17] of 36.7% and a viability, T/C [18] of 4.57%. It also gave a viability, T/C [19] of 112%, a viability, T/C [20] of 83.5% and a viability, T/C [21] of 91.3%. For the same molecule, the viability, T/C [22] was 101%, the viability, T/C [23] was 38.3% and the viability, T/C [24] was 3.65%. The viability, T/C [25] was 64.5%, the viability, T/C [26] was 62.7% and the viability, T/C [27] was 43%. The viability, T/C [28] was 48.7%, the viability, T/C [29] was 26.7% and the viability, T/C [30] was 1.54%. The viability, T/C [31] was 49.2%, the viability, T/C [32] was 43.8% and the viability, T/C [33] was 44.5%. It also gave a viability, T/C [34] of 33.1%, a viability, T/C [35] of 16.2% and a viability, T/C [36] of 0.26%. It also gave a viability, T/C [37] of 38.8%, a viability, T/C [38] of 26.8% and a viability, T/C [39] of 31.8%. It also gave a viability, T/C [40] of 29.2%, a viability, T/C [41] of 4.69% and a viability, T/C [42] of 0.52%.
